According to ChEMBL document CHEMBL5500422, “New Horizons of Synthetic Lethality in Cancer: Current Development and Future Perspectives” (J Med Chem, 2024):
One block for each compound: values may come before it.

Columns and labels:
[1] = biological target: von Hippel-Lindau disease tumor suppressor/SWI/SNF-related matrix-associated actin-dependent regulator of chromatin subfamily A member 2 (Homo sapiens) (UniProt P51531+P40337); test: PROTAC activity at VHL/SMARCA2 in human NCI-H838 cells assessed as induction of SMARCA2 degradation at 0.001 to 1000 nM incubated for 24 hrs by Western blotting analysis relative to control; assay type: cell-based; conditions: dose 0.001-1000 nM
[2] = biological target: von Hippel-Lindau disease tumor suppressor/SWI/SNF-related matrix-associated actin-dependent regulator of chromatin subfamily A member 4 (Homo sapiens) (UniProt P51532+P40337); test: PROTAC activity at VHL/SMARCA4 in human MV4-11 cells assessed as induction of SMARCA4 degradation by measuring maximal efficacy incubated for 18 hrs by Western blotting analysis relative to control; assay type: cell-based
[3] = biological target: T1, DNA repair protein RAD52 homolog (Homo sapiens, UniProt P43351); test: Inhibition of RAD52 (unknown origin) by FRET analysis
T1 sequence (P43351 whole entry): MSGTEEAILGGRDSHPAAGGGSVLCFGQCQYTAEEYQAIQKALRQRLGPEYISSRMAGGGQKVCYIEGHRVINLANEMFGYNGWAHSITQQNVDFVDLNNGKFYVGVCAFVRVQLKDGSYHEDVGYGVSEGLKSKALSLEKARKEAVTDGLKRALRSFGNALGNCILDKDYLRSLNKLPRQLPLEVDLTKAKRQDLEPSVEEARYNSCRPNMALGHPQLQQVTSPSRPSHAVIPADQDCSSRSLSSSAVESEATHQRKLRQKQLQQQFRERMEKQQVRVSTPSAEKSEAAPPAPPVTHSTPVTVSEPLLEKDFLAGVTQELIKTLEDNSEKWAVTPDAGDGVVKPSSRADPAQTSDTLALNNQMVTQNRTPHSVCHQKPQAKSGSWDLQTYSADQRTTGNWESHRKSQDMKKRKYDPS

[4] = biological target: DNA-dependent protein kinase catalytic subunit (Homo sapiens, UniProt P78527)
Description: Inhibition of DNA-PK in human HCT-116 cells measured after 1 hr by Bradford assay

[5] = Antiproliferative activity against human UWB1289 cells harboring BRCA1 assessed inhibition of cell growth incubated for 48 hrs by MTT assay; assay type: functional, cell-based; conditions: UWB1289, 48 h
[6] = Intrinsic clearance in human liver microsomes; assay type: ADME, Microsome
HEK293 = test: Antiproliferative activity against HEK293 cells assessed as inhibition of cell growth incubated for 48 hrs by CCK8 assay; assay type: functional, cell-based; conditions: Homo sapiens, HEK293, 48 h
LoVo = test: Antiproliferative activity against human LoVo cells assessed as reduction in cell viability measured for 48 hrs byT assay; assay type: functional, cell-based
[7] = Intrinsic clearance in mouse liver microsomes; assay type: ADME, Microsome
[8] = biological target: T2, Ubiquitin carboxyl-terminal hydrolase 1 (Homo sapiens, UniProt O94782); test: Inhibition of human recombinant USP1 expressed in baculovirus expressed in Bac-to-Bac baculovirus expression system
T2 sequence (O94782 whole entry): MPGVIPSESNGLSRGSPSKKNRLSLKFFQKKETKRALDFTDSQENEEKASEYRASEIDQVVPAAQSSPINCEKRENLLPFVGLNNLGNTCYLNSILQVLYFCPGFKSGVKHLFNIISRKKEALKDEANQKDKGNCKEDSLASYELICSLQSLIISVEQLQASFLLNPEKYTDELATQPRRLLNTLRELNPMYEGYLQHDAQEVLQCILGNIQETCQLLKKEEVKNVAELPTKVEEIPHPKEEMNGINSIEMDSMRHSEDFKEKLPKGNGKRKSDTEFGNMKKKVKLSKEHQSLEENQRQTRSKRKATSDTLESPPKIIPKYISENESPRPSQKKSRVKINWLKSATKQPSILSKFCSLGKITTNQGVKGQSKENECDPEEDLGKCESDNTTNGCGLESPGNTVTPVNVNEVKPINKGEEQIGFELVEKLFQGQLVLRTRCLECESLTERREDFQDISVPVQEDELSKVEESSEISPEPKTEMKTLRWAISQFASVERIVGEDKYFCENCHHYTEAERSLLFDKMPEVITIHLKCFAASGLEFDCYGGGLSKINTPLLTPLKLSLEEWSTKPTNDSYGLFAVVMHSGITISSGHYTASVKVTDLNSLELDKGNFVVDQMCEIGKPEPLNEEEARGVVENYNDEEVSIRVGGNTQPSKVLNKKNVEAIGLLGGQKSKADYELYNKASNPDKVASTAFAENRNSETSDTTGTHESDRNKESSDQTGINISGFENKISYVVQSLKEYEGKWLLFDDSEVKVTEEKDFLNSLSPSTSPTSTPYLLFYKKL

DNA-dependent protein kinase catalytic subunit, sequence (P78527 whole entry): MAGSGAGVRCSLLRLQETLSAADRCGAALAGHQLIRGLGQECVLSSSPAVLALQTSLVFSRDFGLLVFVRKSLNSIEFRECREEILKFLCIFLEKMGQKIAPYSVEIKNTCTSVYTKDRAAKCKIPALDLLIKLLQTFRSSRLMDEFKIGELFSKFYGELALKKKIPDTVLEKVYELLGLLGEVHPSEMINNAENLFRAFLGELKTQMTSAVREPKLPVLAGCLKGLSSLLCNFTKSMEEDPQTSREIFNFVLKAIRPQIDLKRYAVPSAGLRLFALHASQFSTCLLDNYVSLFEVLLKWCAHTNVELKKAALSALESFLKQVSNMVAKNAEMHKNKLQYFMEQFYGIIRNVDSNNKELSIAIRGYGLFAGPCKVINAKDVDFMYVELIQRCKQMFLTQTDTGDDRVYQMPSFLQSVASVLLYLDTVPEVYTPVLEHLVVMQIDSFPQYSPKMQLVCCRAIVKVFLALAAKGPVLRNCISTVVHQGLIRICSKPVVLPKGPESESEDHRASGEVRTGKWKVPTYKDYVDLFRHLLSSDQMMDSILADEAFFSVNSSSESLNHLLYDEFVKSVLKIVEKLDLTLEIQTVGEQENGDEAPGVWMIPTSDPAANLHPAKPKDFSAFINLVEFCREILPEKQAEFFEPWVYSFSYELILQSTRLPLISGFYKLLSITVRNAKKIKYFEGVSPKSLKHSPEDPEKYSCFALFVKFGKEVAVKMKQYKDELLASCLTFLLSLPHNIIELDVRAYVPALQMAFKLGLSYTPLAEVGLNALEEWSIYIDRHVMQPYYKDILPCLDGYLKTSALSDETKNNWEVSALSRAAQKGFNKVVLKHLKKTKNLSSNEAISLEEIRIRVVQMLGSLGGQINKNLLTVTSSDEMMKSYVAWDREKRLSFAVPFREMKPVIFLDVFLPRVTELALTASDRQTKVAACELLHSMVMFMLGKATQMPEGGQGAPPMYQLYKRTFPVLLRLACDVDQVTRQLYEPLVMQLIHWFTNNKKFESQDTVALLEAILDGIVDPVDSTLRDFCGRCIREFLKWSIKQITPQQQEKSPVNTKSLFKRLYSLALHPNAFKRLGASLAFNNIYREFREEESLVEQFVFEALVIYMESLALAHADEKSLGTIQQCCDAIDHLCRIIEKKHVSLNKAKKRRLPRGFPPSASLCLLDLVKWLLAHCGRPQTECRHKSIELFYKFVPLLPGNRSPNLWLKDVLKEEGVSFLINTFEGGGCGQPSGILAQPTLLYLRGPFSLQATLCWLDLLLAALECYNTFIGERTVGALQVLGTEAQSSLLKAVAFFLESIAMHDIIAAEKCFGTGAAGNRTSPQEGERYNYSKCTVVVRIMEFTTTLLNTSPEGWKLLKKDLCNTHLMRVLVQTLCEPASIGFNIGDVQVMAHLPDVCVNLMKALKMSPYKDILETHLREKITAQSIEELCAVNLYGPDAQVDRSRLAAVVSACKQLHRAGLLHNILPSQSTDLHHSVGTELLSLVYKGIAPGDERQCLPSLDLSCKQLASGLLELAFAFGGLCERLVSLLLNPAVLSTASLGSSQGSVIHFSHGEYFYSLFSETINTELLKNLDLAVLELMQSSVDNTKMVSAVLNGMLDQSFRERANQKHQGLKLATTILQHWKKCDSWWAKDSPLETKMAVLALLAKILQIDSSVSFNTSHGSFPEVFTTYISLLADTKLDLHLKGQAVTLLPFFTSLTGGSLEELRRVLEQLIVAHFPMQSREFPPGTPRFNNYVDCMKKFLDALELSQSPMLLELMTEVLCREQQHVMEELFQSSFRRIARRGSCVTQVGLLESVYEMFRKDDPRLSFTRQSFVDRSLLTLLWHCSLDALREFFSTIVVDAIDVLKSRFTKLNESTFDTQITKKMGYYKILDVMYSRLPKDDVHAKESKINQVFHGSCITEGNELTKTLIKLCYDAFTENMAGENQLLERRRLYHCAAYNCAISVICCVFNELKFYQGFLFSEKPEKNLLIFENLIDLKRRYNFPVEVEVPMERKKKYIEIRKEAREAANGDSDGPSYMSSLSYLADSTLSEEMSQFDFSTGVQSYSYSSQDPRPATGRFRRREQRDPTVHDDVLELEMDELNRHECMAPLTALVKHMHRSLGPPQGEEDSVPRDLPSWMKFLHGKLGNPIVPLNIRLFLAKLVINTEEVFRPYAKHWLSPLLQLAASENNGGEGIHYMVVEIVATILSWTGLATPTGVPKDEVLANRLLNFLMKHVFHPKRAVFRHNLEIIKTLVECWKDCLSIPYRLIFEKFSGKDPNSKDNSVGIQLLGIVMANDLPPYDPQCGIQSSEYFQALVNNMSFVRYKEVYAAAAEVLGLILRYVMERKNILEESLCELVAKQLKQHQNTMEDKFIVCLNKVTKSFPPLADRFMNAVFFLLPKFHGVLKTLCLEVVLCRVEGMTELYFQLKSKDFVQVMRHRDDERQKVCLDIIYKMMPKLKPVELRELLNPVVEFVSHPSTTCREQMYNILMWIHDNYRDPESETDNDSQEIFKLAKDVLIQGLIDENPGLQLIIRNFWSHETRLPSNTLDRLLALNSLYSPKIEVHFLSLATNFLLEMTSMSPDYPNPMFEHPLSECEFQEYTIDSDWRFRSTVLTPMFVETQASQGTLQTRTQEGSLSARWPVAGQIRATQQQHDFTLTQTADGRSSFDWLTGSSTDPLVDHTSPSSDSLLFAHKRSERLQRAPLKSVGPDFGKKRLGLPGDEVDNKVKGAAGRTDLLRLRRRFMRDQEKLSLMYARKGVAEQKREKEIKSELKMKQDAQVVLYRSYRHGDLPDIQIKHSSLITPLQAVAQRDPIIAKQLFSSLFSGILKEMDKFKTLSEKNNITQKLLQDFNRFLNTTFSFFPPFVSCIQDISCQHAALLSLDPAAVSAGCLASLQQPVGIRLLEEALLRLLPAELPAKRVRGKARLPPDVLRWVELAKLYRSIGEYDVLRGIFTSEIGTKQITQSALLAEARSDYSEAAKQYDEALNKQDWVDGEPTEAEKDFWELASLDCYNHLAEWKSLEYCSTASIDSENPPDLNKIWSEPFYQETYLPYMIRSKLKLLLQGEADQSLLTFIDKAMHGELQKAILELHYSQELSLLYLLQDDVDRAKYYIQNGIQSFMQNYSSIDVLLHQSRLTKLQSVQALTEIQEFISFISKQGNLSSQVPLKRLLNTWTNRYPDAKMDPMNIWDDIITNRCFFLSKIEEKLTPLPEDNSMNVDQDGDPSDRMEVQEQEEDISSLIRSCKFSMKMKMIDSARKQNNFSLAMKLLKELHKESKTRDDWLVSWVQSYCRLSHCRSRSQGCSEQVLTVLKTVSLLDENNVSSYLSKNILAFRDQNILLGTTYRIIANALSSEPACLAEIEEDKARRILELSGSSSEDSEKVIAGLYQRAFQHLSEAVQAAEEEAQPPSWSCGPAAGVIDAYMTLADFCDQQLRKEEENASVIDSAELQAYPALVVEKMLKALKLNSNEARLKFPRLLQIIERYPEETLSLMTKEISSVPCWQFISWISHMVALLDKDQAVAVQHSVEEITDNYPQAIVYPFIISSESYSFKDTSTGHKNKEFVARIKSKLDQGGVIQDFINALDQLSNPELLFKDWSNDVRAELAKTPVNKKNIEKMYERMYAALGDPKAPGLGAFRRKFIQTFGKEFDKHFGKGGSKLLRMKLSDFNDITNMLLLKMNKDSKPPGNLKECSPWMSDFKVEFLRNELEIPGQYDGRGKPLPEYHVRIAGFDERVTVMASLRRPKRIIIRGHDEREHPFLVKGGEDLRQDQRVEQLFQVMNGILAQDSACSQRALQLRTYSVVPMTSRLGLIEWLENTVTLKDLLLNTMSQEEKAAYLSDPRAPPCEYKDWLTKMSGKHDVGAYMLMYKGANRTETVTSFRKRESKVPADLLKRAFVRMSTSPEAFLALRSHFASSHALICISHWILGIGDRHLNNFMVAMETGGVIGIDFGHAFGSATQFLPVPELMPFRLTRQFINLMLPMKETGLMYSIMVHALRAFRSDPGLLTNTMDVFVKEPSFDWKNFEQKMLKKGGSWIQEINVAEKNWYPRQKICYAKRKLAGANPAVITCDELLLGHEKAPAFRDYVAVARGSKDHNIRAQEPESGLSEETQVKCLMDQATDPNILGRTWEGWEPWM

SMILES: COc1ccccc1NS(=O)(=O)c1cc(C(=O)O)ccc1C
IC50 [3]: 2000 nM

SMILES: CC(C)NCCOc1ncc(-c2cc3c4c(cnc3cc2F)N(C)C(=O)C42CCC2)cc1NS(C)(=O)=O
IC50 [4]: 0.89 nM

SMILES: Cc1cccc(N(C)C(=O)[C@@H]2[C@H](O)CCN2c2nc(C)cc(C(F)(F)F)c2C#N)c1
IC50 [5]: 7.9 nM

SMILES: C[C@@H]1COCCN1c1cc(N=[S@@](C)(=O)C2CC2)nc(-c2ccnc(N)c2)n1
IC50 (HEK293): 7900 nM

SMILES: Nc1nn2cc(F)cnc2c1C(=O)Nc1cncc(F)c1N1CCC(C(=O)N2CCN(C3COC3)CC2)CC1 [M4344]
IC50 (LoVo): 86 nM

SMILES: Cn1c(=O)c2cc(S(=O)(=O)NC3(C)CC3)ccc2n(C)c1=O
CLH [7]: 211 µL/min/mg

SMILES: CC(C)c1ccccc1-c1ncc2[nH]c(=O)n(Cc3ccc(-c4nc(C(F)(F)F)cn4C)cc3)c2n1
IC50 [8]: 4.1 nM

The next lines start with the values.

Emax [1]: 81%
Emax [2]: 67%
SMILES: Cc1ncsc1-c1ccc([C@H](CC[C@H](C)CCN2CCC(c3ccc4c(c3)n(C3CCCC3)c3nc(=O)c5c(Br)cccc5n43)CC2)NC(=O)[C@@H]2C[C@@H](O)CN2C(=O)[C@@H](NC(=O)C2(F)CC2)C(C)(C)C)cc1

IC50 [3]: 2000 nM
SMILES: O=C(Cn1cccc([N+](=O)[O-])c1=O)c1c[nH]c2ccccc12

CLH [6]: 78 µL/min/mg
SMILES: Cc1ncc(Cn2c(=O)c3cc(S(=O)(=O)NC4(C)CC4)ccc3n(CC3CC3)c2=O)s1
